# Assay results as given in PubChem BioAssay (NCI).
#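 Cells were grown in 96-well plates and exposed to each compound for 48 hours at five concentrations; endpoints were interpolated linearly between bracketing concentrations, or set to the highest concentration if not reached. TGI: total growth inhibition.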
# What was measured:
# Assay in all cases: NCI-60 cell line screen, 48 h
# [1] = test system: OVCAR-8 ovarian
# [2] = test system: UACC-257 melanoma
# [3] = test system: NCI-H23 lung
# [4] = test system: HCT-116 colon
# [5] = test system: ACHN renal
# [6] = test system: NCI-H226 lung
# [7] = test system: SF-268 CNS
# [8] = test system: T-47D breast
# [9] = test system: KM12 colon
# [10] = test system: SK-MEL-2 melanoma
# [11] = test system: NCI-H460 lung
# [12] = test system: EKVX NSCLC
# [13] = test system: BT-549 breast
Compound,TGI [1],TGI [2],TGI [3],TGI [4],TGI [5],TGI [6],TGI [7],TGI [8],TGI [9],TGI [10],TGI [11],TGI [12],TGI [13]
Cc1ccccc1Nc1nc2ccccc2nc1NS(=O)(=O)c1ccccc1,> 100 µM,> 100 µM,> 100 µM,> 100 µM,> 100 µM,> 100 µM,> 100 µM,> 100 µM,> 100 µM,> 100 µM,> 100 µM,> 100 µM,–
Cc1nc(-n2nc(-c3ccccc3)cc2-c2ccccc2)sc1C(=O)/C=C/c1ccccc1,> 100 µM,> 100 µM,> 100 µM,–,> 100 µM,–,> 100 µM,–,> 100 µM,> 100 µM,> 100 µM,> 100 µM,–
CCOC(=O)C1C(c2ccc(OC)cc2)c2c([nH]n(-c3ccccc3)c2=O)CC1(C)O (stereo unspecified),> 100 µM,> 100 µM,> 100 µM,> 100 µM,> 100 µM,–,> 100 µM,> 100 µM,> 100 µM,> 100 µM,> 100 µM,> 100 µM,–
CN(/N=C\c1ccc2ccccc2c1)C1=NCCCN1,> 100 µM,23.6 µM,> 100 µM,28.9 µM,35.9 µM,40.4 µM,60.2 µM,> 100 µM,32.1 µM,35 µM,20.3 µM,53.8 µM,–
c1cc2c(cc1[C@@H]1OC[C@@H]3[C@H]1CO[C@H]3c1ccc3c(c1)OCO3)OCO2,> 100 µM,80.7 µM,> 100 µM,> 100 µM,> 100 µM,> 100 µM,> 100 µM,> 100 µM,71 µM,> 100 µM,> 100 µM,83.6 µM,–
CCOC(=O)c1c(-c2ccccc2)c(C)cn1C,> 10 µM,> 10 µM,> 10 µM,> 10 µM,> 10 µM,> 10 µM,> 10 µM,–,> 10 µM,> 10 µM,> 10 µM,> 10 µM,> 10 µM
COC(=O)CC1CC2(C(=O)OC)c3[nH]c4ccccc4c3CCN2C1=O (stereo unspecified),> 100 µM,> 100 µM,> 100 µM,> 100 µM,> 100 µM,> 100 µM,> 100 µM,–,> 100 µM,> 100 µM,> 100 µM,> 100 µM,–
c1ccc(Nc2nnc(CCCCCCCCc3nnc(Nc4ccccc4)o3)o2)cc1,> 100 µM,> 100 µM,> 100 µM,> 100 µM,> 100 µM,> 100 µM,> 100 µM,–,> 100 µM,> 100 µM,> 100 µM,> 100 µM,> 100 µM
Cc1nc(Cc2n[nH]c(C)n2)n[nH]1,> 100 µM,> 100 µM,> 100 µM,> 100 µM,> 100 µM,–,> 100 µM,–,> 100 µM,> 100 µM,–,> 100 µM,> 100 µM
NC(N)=NCCCC(NC(=O)c1c2ccccc2nc2ccccc12)C(=O)O (stereo unspecified),> 100 µM,> 100 µM,> 100 µM,> 100 µM,> 100 µM,> 100 µM,> 100 µM,–,> 100 µM,> 100 µM,> 100 µM,> 100 µM,> 100 µM
CC(C)(CN1CCCCC1)C(=O)CC(SCCS(=O)(=O)O)c1ccc(Cl)cc1 (stereo unspecified),11.1 µM,20.5 µM,16.6 µM,13.6 µM,17.1 µM,27.9 µM,–,–,19.2 µM,18.8 µM,25.2 µM,11.8 µM,22.7 µM
COc1ccc2c(c1)CC[C@@H]1C2CC[C@]2(C)C(=C=CP(=O)(O)O)CCC12 (stereo partly specified),> 100 µM,> 100 µM,> 100 µM,> 100 µM,> 100 µM,> 100 µM,> 100 µM,> 100 µM,> 100 µM,> 100 µM,> 100 µM,> 100 µM,–
O=c1[nH]c2ccc([N+](=O)[O-])cc2nc1/C(=N/Nc1ccccc1)C(O)c1ccco1 (stereo unspecified),> 100 µM,> 100 µM,> 100 µM,> 100 µM,> 100 µM,> 100 µM,> 100 µM,–,> 100 µM,> 100 µM,> 100 µM,> 100 µM,–
O=C(NCc1ccccc1Cl)c1c(O)c2ccccc2[nH]c1=O,> 100 µM,> 100 µM,> 100 µM,> 100 µM,–,> 100 µM,> 100 µM,–,> 100 µM,–,> 100 µM,> 100 µM,> 100 µM
O=C1c2ccccc2C(=O)c2sc(Nc3cc(Cl)ccc3Cl)nc21,14.2 µM,7.76 µM,28.7 µM,13.7 µM,19 µM,44.7 µM,21 µM,34.3 µM,26.5 µM,31.6 µM,21.5 µM,26.7 µM,–
O=CC1=CCC2c3[nH]c4ccccc4c3CCN2C1 (stereo unspecified),> 396 µM,347 µM,320 µM,126 µM,> 396 µM,385 µM,> 396 µM,–,153 µM,267 µM,> 396 µM,> 396 µM,–
CSc1nc(C)c2c(n1)N(c1ccc(Cl)cc1)CC2,> 100 µM,> 100 µM,> 100 µM,> 100 µM,> 100 µM,> 100 µM,> 100 µM,> 100 µM,> 100 µM,> 100 µM,> 100 µM,> 100 µM,–
CC(C)[C@@H]1NC(=O)[C@@H]2N=C(O[C@H]2C)[C@H](C(C)C)NC(=O)C2N=C1O[C@H]2C,> 100 µM,> 100 µM,> 100 µM,> 100 µM,> 100 µM,> 100 µM,> 100 µM,> 100 µM,> 100 µM,> 100 µM,> 100 µM,> 100 µM,–
CC1=CCN(c2ccccn2)OC1c1ccccc1 (stereo unspecified),> 100 µM,> 100 µM,> 100 µM,> 100 µM,> 100 µM,> 100 µM,> 100 µM,–,> 100 µM,> 100 µM,> 100 µM,> 100 µM,–
CCc1cc2c(c3c1CCCC3=O)CC1(C2)Cc2cc(CC)c3c(c2C1)C(=O)CCC3,> 100 µM,> 100 µM,> 100 µM,> 100 µM,> 100 µM,> 100 µM,> 100 µM,> 100 µM,> 100 µM,> 100 µM,> 100 µM,> 100 µM,–
Cc1ccc(-n2cc(-c3ccc(Cl)cc3)c3c(=N)n(N)cnc32)cc1,29.9 µM,21.5 µM,30.3 µM,20.3 µM,29.7 µM,38.2 µM,25.7 µM,–,–,26.8 µM,22.2 µM,29.9 µM,31.7 µM
O=C1CNN=C(Cn2nc(-c3ccccc3)c3ccccc3c2=O)N1,> 100 µM,> 100 µM,> 100 µM,> 100 µM,> 100 µM,> 100 µM,> 100 µM,–,> 100 µM,> 100 µM,> 100 µM,–,–
COc1ccc(-c2cc(-c3ccco3)c(C#N)c(=O)[nH]2)cc1,> 100 µM,> 100 µM,> 100 µM,> 100 µM,> 100 µM,> 100 µM,> 100 µM,–,> 100 µM,–,> 100 µM,> 100 µM,–
N#Cc1c(N)nc(Sc2ccccc2N)c(C#N)c1-c1ccccc1,75 µM,> 100 µM,63.7 µM,> 100 µM,69.2 µM,> 100 µM,75.3 µM,–,94.8 µM,32.5 µM,50.6 µM,> 100 µM,95.9 µM
S=c1[nH]nc(CCCCCCCCc2n[nH]c(=S)o2)o1,> 100 µM,> 100 µM,> 100 µM,> 100 µM,> 100 µM,> 100 µM,> 100 µM,–,> 100 µM,> 100 µM,> 100 µM,> 100 µM,> 100 µM
O=C(/C(=C/c1ccc(O)cc1)c1ccccc1)c1ccccc1,60 µM,32.9 µM,30.7 µM,31.5 µM,29.6 µM,30.8 µM,34.6 µM,–,29.1 µM,24.1 µM,38.4 µM,45.8 µM,–
CCCCCCCCCCCCCCCC(=O)OCC1OC(n2cc(F)c(=O)[nH]c2=O)C(NC(=O)N(CCCl)N=O)C(O)C1O (stereo unspecified),9.69 µM,17.8 µM,2.84 µM,3.07 µM,10.9 µM,24 µM,2.83 µM,–,4.91 µM,3.3 µM,4.81 µM,7.18 µM,–
Cn1c(NC(=O)NC23CC4CC(CC(C4)C2)C3)nc2ccccc21,> 100 µM,> 100 µM,> 100 µM,> 100 µM,> 100 µM,> 100 µM,> 100 µM,–,> 100 µM,> 100 µM,> 100 µM,> 100 µM,–
C=CCN1C(=O)CC(=O)N(NC2=NNC3(C(=O)N2)c2ccccc2-c2ccccc23)C1=S,> 100 µM,> 100 µM,> 100 µM,> 100 µM,> 100 µM,82.5 µM,> 100 µM,–,–,74.5 µM,> 100 µM,> 100 µM,> 100 µM
